Source: patent US12097241B2, “Methods of treating kidney failure, and/or improving or stablizing renal function using modified relaxin polypeptides” (BRISTOL-MYERS SQUIBB COMPANY, priority 2017, dated 2024)
“Also recorded” adds a separate entry of the source. Marks after values point to notes of the source that are not given here.

What was measured:
[1] = Rat renal blood flow studies; assay type: in vivo, Sprague Dawley rats; conditions: 1 mg/kg intravenously; for % change in RBF over baseline: anesthetized male Sprague Dawley rats, renal blood flow recorded for 45 min; for effect on renal blood flow (in words): rats, 1 mg/kg
Method: Male Sprague Dawley rats (˜250-300 g) were anesthetized with sodium pentobarbital (50 mg/kg), the trachea was cannulated with PE-205 tubing to maintain airway patency, and temperature was maintained at 37° C. with a heated surgical plate. A 1.4 F pressure catheter (Millar Inc., Houston, TX) was advanced into the right carotid artery to measure aortic blood pressure. The right jugular vein was cannulated with PE-50 tubing for administration of test articles. The left kidney was exposed by a retroperitoneal incision, and a Doppler flow probe (Model 0.5 VB, Transonic System Inc., Ithaca, NY) was attached to the left renal artery to monitor blood flow. Sodium pentobarbital (15 mg/kg, intraperitoneal) was supplemented after completion of these surgical procedures. Following a 10-15 min equilibration, the relaxin was administered at 1 mg/kg intravenously in a dosing volume of 0.15 to 1.82 mL/kg over 30 seconds via an infusion pump (Harvard Apparatus, Holliston, MA). Blood pressure, heart rate and renal blood flow were continuously recorded for 45 min after relaxin administration using a Millar MPVS Ultra Signal Conditioning unit connected to a desktop computer running LabChart 7-Pro data acquisition software (ADInstruments, Dunedin, New Zealand) (Table 5). Table 5. Rat renal blood flow changes (abbreviations as in Table 3).

[2] = In vivo pharmacokinetic (PK) studies in rats; parameters: species or system Sprague-Dawley rats; conditions: rat, male Sprague-Dawley rats, single SC dose 1.0 mg/kg, serum ELISA
Method in brief: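 Male Sprague-Dawley rats (n=3) given a single 1 mg/kg IV or SC dose of relaxin constructs in 20 mM histidine, 750 mM NaCl, pH 6.0; jugular serum sampled to 72 h. Serum relaxin by ELISA; Cmax, AUCinf, C24 and half-life from non-compartmental analysis of individual profiles.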

human RXFP1 receptor = target: T1, human RXFP1 receptor (Homo sapiens, UniProt Q9HBX9); assay: Intracellular cAMP accumulation assay; assay type: cell-based
T1 construct: expressed in transfected cells
T1 sequence (Q9HBX9 1-757): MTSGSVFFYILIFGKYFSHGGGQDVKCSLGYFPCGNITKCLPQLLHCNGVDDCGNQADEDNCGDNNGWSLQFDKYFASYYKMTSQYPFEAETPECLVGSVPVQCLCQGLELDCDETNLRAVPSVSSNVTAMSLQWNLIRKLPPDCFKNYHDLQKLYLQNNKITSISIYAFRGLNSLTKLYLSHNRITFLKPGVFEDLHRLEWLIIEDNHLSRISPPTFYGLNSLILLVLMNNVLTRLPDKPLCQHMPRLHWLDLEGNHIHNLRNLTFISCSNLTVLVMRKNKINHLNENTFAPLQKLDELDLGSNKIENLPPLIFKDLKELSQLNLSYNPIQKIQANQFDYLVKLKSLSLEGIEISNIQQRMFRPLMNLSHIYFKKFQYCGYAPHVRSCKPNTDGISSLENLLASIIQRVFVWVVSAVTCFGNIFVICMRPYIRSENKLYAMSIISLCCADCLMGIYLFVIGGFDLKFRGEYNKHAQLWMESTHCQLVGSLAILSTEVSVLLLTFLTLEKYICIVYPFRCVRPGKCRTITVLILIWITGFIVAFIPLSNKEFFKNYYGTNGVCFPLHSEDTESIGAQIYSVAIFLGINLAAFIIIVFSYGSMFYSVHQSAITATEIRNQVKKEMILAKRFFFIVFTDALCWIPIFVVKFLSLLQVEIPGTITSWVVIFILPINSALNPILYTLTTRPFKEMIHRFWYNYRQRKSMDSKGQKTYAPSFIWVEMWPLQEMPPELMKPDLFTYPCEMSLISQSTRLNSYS
Method: The intracellular cAMP accumulation assay described herein was used to assess relaxin bioactivity and potency.
CHO-K1 cells (ATCC; Cat. #CRL-9618) stably expressing the human RXFP1 receptor (locus number LOC59350) (10,000/well) were plated into 96-well plates and cultured overnight at 37° C. and 5% CO2. On the following day, the medium was removed from the wells and the cells were stimulated with the addition of ligand (relaxin polypeptide) in 50 uL buffer (1×HBSS, 5 mM HEPES (7.2), 0.5 mM IBMX, 0.1% BSA); incubation was for 10 min at 37° C. Unstimulated cells were utilized as reference controls. Reactions were terminated and cellular cAMP levels were measured using the Homogeneous Time Resolved Fluorescence (HTRF) Dynamic 2 cAMP kit (CisBio, #62AM4PEC) according to the manufacturer's protocol. Plates were analyzed using an EnVision 2104 Multilablel Reader (PerkinElmer). Signal was expressed in terms of the ratio of fluorescence intensity @ 665 nm/fluorescence intensity @620 nm×10,000. The concentration of cAMP in the sample was determined by comparison with standard curves generated from known concentrations of cAMP. The potency of each relaxin was determined using a ten-point concentration response curves which was performed in duplicate. The data were analyzed using Microsoft Excel, Version 2013 Xlfit software. Effective concentration 50 (EC50) values, the point at which the response was one-half maximal, were calculated using a four-parameter logistic equation that allowed for a variable-slope (Table 3).

| SMILES | % change in RBF over baseline [1] | effect on renal blood flow (in words) [1] | AUC(0-inf) ([2]; read-out: Rat PK AUC Total) [µM·h] | level at time molar at 24 h ([2]; read-out: Rat PK C24) [nM] | EC50 (human RXFP1 receptor) [nM] |
| --- | --- | --- | --- | --- | --- |
| CCCCCCCCCCCCCC(=O)N[C@@H](CCC(=O)NCCO/N=C(\C)c1ccc(C[C@H](N)C(=O)N[C@@H](CC(C)C)C(=O)N[C@@H](Cc2ccc(O)cc2)C(=O)N[C@@H](CO)C(=O)N[C@@H](C)C(=O)N[C@@H](CC(C)C)C(=O)N[C@@H](C)C(=O)N[C@@H](CC(N)=O)C(=O)N[C@@H](CCCCN)C(=O)N[C@H]2CSSC[C@@H]3NC(=O)CNC(=O)[C@H](C(C)C)NC(=O)[C@H](Cc4c[nH]cn4)NC(=O)[C@H](CSSC[C@H](NC(=O)[C@H](CC(C)C)NC(=O)[C@H](CCCCN)NC(=O)[C@@H](NC(=O)[C@@H](NC(=O)[C@H](CCC(=O)O)NC(=O)[C@H](CCC(=O)O)NC(=O)[C@H](CCSC)NC(=O)[C@H](Cc4c[nH]c5ccccc45)NC(=O)[C@H](CO)NC(=O)[C@H](C)N)C(C)C)[C@@H](C)CC)C(=O)NCC(=O)N[C@@H](CCCNC(=N)N)C(=O)N[C@@H](CCC(=O)O)C(=O)N[C@@H](CC(C)C)C(=O)N[C@@H](C(C)C)C(=O)N[C@@H](CCCNC(=N)N)C(=O)N[C@@H](C)C(=O)N[C@@H](CCC(N)=O)C(=O)N[C@@H]([C@@H](C)CC)C(=O)N[C@@H](C)C(=O)N[C@@H]([C@@H](C)CC)C(=O)N[C@H](C(=O)NCC(=O)N[C@@H](CCSC)C(=O)N[C@@H](CO)C(=O)N[C@H](C(=O)N[C@@H](Cc4c[nH]c5ccccc45)C(=O)N[C@@H](CO)C(=O)O)[C@@H](C)O)CSSC[C@@H](C(=O)O)NC(=O)[C@H](Cc4ccccc4)NC(=O)[C@H](CCCNC(=N)N)NC(=O)[C@H](C)NC(=O)[C@H](CC(C)C)NC(=O)[C@H](CO)NC(=O)[C@H](CCCNC(=N)N)NC(=O)[C@H](CCCCN)NC(=O)[C@H]([C@@H](C)O)NC3=O)NC2=O)cc1)C(=O)O [AQ1-Glu-C13-CH3] | −27^b % | impaired renal blood flow; also recorded: decreased renal blood flow |  |  |  |
| CC[C@H](C)[C@@H]1NC(=O)[C@H](C)NC(=O)[C@H]([C@@H](C)CC)NC(=O)[C@H](CCC(N)=O)NC(=O)[C@H](C)NC(=O)[C@H](CCCNC(=N)N)NC(=O)[C@H](C(C)C)NC(=O)[C@H](CC(C)C)NC(=O)[C@H](CCC(=O)O)NC(=O)[C@H](CCCNC(=N)N)NC(=O)CNC(=O)[C@@H](NC(=O)[C@H](CC(C)C)NC(=O)[C@H](CCCCN)NC(=O)[C@@H](NC(=O)[C@@H](NC(=O)[C@H](CCC(=O)O)NC(=O)[C@H](CCC(=O)O)NC(=O)[C@H](CCSC)NC(=O)[C@H](Cc2c[nH]c3ccccc23)NC(=O)[C@H](CO)NC(=O)[C@H](C)N)C(C)C)[C@@H](C)CC)CSSC[C@@H]2NC(=O)[C@@H](NC(=O)[C@H](CCCCN)NC(=O)[C@H](CC(N)=O)NC(=O)[C@H](C)NC(=O)[C@H](CC(C)C)NC(=O)[C@H](C)NC(=O)[C@H](CO)NC(=O)[C@H](Cc3ccc(O)cc3)NC(=O)[C@H](CC(C)C)NC(=O)[C@@H](N)Cc3ccc(/C(C)=N/OCCNC(=O)CC[C@H](NC(=O)CCCCCCCCCCCCC(=O)O)C(=O)O)cc3)CSSC[C@H](NC(=O)CNC(=O)[C@H](C(C)C)NC(=O)[C@H](Cc3c[nH]cn3)NC2=O)C(=O)N[C@@H]([C@@H](C)O)C(=O)N[C@@H](CCCCN)C(=O)N[C@@H](CCCNC(=N)N)C(=O)N[C@@H](CO)C(=O)N[C@@H](CC(C)C)C(=O)N[C@@H](C)C(=O)N[C@@H](CCCNC(=N)N)C(=O)N[C@@H](Cc2ccccc2)C(=O)N[C@H](C(=O)O)CSSC[C@@H](C(=O)NCC(=O)N[C@@H](CCSC)C(=O)N[C@@H](CO)C(=O)N[C@H](C(=O)N[C@@H](Cc2c[nH]c3ccccc23)C(=O)N[C@@H](CO)C(=O)O)[C@@H](C)O)NC1=O [AQ1-Glu-C13-COOH] | +14^b % |  |  |  |  |
| CCCCCCCCCCCCCC(=O)N[C@@H](CCC(=O)NCCOCCOCCOCCOCCOCCOCCOCCOCCOCCOCCOCCOCCOCCOCCOCCOCCOCCOCCOCCOCCOCCOCCOCCOCCOCCOCCOCCOCCOCCOCCOCCOCCOCCOCCOCCOCCC(=O)NCCO/N=C(\C)c1ccc(C[C@H](N)C(=O)N[C@@H](CC(C)C)C(=O)N[C@@H](Cc2ccc(O)cc2)C(=O)N[C@@H](CO)C(=O)N[C@@H](C)C(=O)N[C@@H](CC(C)C)C(=O)N[C@@H](C)C(=O)N[C@@H](CC(N)=O)C(=O)N[C@@H](CCCCN)C(=O)N[C@H]2CSSC[C@@H]3NC(=O)CNC(=O)[C@H](C(C)C)NC(=O)[C@H](Cc4c[nH]cn4)NC(=O)[C@H](CSSC[C@H](NC(=O)[C@H](CC(C)C)NC(=O)[C@H](CCCCN)NC(=O)[C@@H](NC(=O)[C@@H](NC(=O)[C@H](CCC(=O)O)NC(=O)[C@H](CCC(=O)O)NC(=O)[C@H](CCSC)NC(=O)[C@H](Cc4c[nH]c5ccccc45)NC(=O)[C@H](CO)NC(=O)[C@H](C)N)C(C)C)[C@@H](C)CC)C(=O)NCC(=O)N[C@@H](CCCNC(=N)N)C(=O)N[C@@H](CCC(=O)O)C(=O)N[C@@H](CC(C)C)C(=O)N[C@@H](C(C)C)C(=O)N[C@@H](CCCNC(=N)N)C(=O)N[C@@H](C)C(=O)N[C@@H](CCC(N)=O)C(=O)N[C@@H]([C@@H](C)CC)C(=O)N[C@@H](C)C(=O)N[C@@H]([C@@H](C)CC)C(=O)N[C@H](C(=O)NCC(=O)N[C@@H](CCSC)C(=O)N[C@@H](CO)C(=O)N[C@H](C(=O)N[C@@H](Cc4c[nH]c5ccccc45)C(=O)N[C@@H](CO)C(=O)O)[C@@H](C)O)CSSC[C@@H](C(=O)O)NC(=O)[C@H](Cc4ccccc4)NC(=O)[C@H](CCCNC(=N)N)NC(=O)[C@H](C)NC(=O)[C@H](CC(C)C)NC(=O)[C@H](CO)NC(=O)[C@H](CCCNC(=N)N)NC(=O)[C@H](CCCCN)NC(=O)[C@H]([C@@H](C)O)NC3=O)NC2=O)cc1)C(=O)O [AQ1-PEG36-Glu-C13-CH3] | +20^b % | increased renal blood flow; also recorded: good renal blood flow |  |  |  |
| CC[C@H](C)[C@@H]1NC(=O)[C@H](C)NC(=O)[C@H]([C@@H](C)CC)NC(=O)[C@H](CCC(N)=O)NC(=O)[C@H](C)NC(=O)[C@H](CCCNC(=N)N)NC(=O)[C@H](C(C)C)NC(=O)[C@H](CC(C)C)NC(=O)[C@H](CCC(=O)O)NC(=O)[C@H](CCCNC(=N)N)NC(=O)CNC(=O)[C@@H](NC(=O)[C@H](CC(C)C)NC(=O)[C@H](CCCCN)NC(=O)[C@@H](NC(=O)[C@@H](NC(=O)[C@H](CCC(=O)O)NC(=O)[C@H](CCC(=O)O)NC(=O)[C@H](CCSC)NC(=O)[C@H](Cc2c[nH]c3ccccc23)NC(=O)[C@H](CO)NC(=O)[C@H](C)N)C(C)C)[C@@H](C)CC)CSSC[C@@H]2NC(=O)[C@@H](NC(=O)[C@H](CCCCN)NC(=O)[C@H](CC(N)=O)NC(=O)[C@H](C)NC(=O)[C@H](CC(C)C)NC(=O)[C@H](C)NC(=O)[C@H](CO)NC(=O)[C@H](Cc3ccc(O)cc3)NC(=O)[C@H](CC(C)C)NC(=O)[C@@H](N)Cc3ccc(C(C)=NOCCNC(=O)[C@@H](CCCCN)NC(=O)[C@@H](CCCCN)NC(=O)[C@@H](CCCCN)NC(=O)[C@@H](CCCCN)NC(=O)[C@@H](CCCCN)NC(=O)[C@@H](CCCCN)NC(=O)CC[C@H](NC(=O)CCCCCCCCCCCCC(=O)O)C(=O)O)cc3)CSSC[C@H](NC(=O)CNC(=O)[C@H](C(C)C)NC(=O)[C@H](Cc3c[nH]cn3)NC2=O)C(=O)N[C@@H]([C@@H](C)O)C(=O)N[C@@H](CCCCN)C(=O)N[C@@H](CCCNC(=N)N)C(=O)N[C@@H](CO)C(=O)N[C@@H](CC(C)C)C(=O)N[C@@H](C)C(=O)N[C@@H](CCCNC(=N)N)C(=O)N[C@@H](Cc2ccccc2)C(=O)N[C@H](C(=O)O)CSSC[C@@H](C(=O)NCC(=O)N[C@@H](CCSC)C(=O)N[C@@H](CO)C(=O)N[C@H](C(=O)N[C@@H](Cc2c[nH]c3ccccc23)C(=O)N[C@@H](CO)C(=O)O)[C@@H](C)O)NC1=O [AQ1-dKdKdKdKdKdK-Glu^γ-C13-COOH] |  |  | 0.0312 | 0.06 | 0.1 |
